{"source": "patent US4902690A", "about": "“Pest controlling compositions” (The General Hospital Corporation, priority 1988, dated 1990)", "key": {"[1]": {"test_system": "PDE in tissue homogenate from tobacco hornworm nerve cord", "assay": "Cyclic AMP analogue remaining after incubation with nerve cord homogenate", "assay_type": "in vitro ADME, tobacco hornworm (Manducca sexta)", "details": "IBMX 0.1 mM; 4 hours in vitro; FIG. 20", "method": "It has been previously shown, above, that PDE inhibition can increase the concentration of cyclic AMP in insect tissue. […] In order to do this, a fixed amount of butyl-benzylthio cyclic AMP was incubated in vitro for 4 hours in the presence of a tissue homogenate from tobacco hornworm nerve cord. In some tubes, IBMX (0.1 mM) was added to inhibit PDE. After the incubation, the amount of butyl-benzylthio cyclic AMP remaining was measured by protein binding assay (Brown et al., supra), using a standard curve based upon butyl-benzylthio cyclic AMP."}, "[2]": {"test_system": "tobacco hornworms (Manducca sexta)", "assay": "In vivo leaf test (feeding on sprayed tomato leaves)"}, "[3]": {"test_system": "Firefly phosphodiesterase enzyme", "assay": "PDE inhibitory activity, firefly lantern", "assay_type": "biochemical, firefly (Photinus pyralis)", "source_text": "(§1) The ability of any compound (A) to inhibit phosphodiesterase (PDE) activity in broken cell preparations of firefly lantern or in pest tissues can be determined either (1) by measuring the decrease in rate of hydrolysis of an added amount of cyclic AMP by PDE (see Methods Section of Nathanson et al., Mol. Pharmacol. 12:390-398 (1975)), or (2) by measuring the rate of accumulation of one of the breakdown products of cyclic AMP, such as 5'-AMP or adenosine (see method of Filburn et al., Anal. Biochem. 52:505-516 (1973)). Both of these are herein incorporated by reference.\nGenerally, any compound capable of maximally inhibiting PDE activity by at least 50% (Vmax -inhibition) and preferably by at least 80% is preferred. Also, in terms of the concentration of the compound required for such inhibition, this can be quantitated by determining the IC 50-inhibition, i.e., the concentration of the compound required to cause 50% of the maximal inhibitioncaused by the compound at any concentration.\n(§2) In this assay (modified slightly from Filburn and Karn (Analyt. Biochem. 52: 505-516 (1973)), the rate of hydrolysis of labeled cyclic AMP to 5'-AMP by PDE is measured by converting the breakdown product (5'-AMP) to adenosine, which can be separated and measured by alumina chromatography. Specifically, tissue from either the firefly lantern or pest is homogenized (10-20 mg/ml) in 6 mM Tris-maleate buffer, pH 7.4. The hydrolysis reaction is run in test tubes containing (in 100 microliters): 80 mM Tris maleate, pH 7.4; 6 mM MgSO4; 10 pmoles tritiated cyclic AMP (2×10^4 to 2×10^5 cpm, depending upon the activity of the enzyme); 20 microliters of tissue homogenate; and various concentrations of the compound to be tested. In those cases in which the compound is insoluble in aqueous solution at pH 7.4, pH can be varied between pH 6.5 and 9.0 for optimization of solubility. In addition, the test compound can be initially solubilized in either 100% methanol or DMSO and diluted to a final concentration of 10% methanol or DMSO in the assay (in which case solvent controls are run in parallel).\nThe reaction is started by the addition of homogenate, run for 4 min at 37° C., and terminated by boiling for 90 sec. The 5'AMP formed is then converted to adenosine by the addition of 20 microliters of an aqueous solution of 0.5 Units/ml of 5'-nucleotidase (Sigma, Grade IV), vortexed, and incubated for 30 minutes at 37° C. The second reaction is stopped by addition of 0.4 ml of 0.1N ammonium acetate, pH 4.0. The entire sample is then applied to a 0.5×8 cm column containing neutral alumina prewashed with 20 ml of 0.1N ammonium acetate, pH 4.0. The void volume is discarded and the column is then eluted with 2 ml of 0.1N ammonium acetate, pH 4.0, the eluent collected and counted by liquid scintillation spectrometry. Activity is cpms above that due to a blank which was initially incubated for 0 seconds in the first reaction."}, "[4]": {"test_system": "phosphodiesterase enzyme of hornworm nerve cord", "assay": "PDE inhibitory activity, hornworm nerve tissue", "assay_type": "biochemical, tobacco hornworm (Manducca sexta)", "details": "FIG. 8", "source_text": "as §1, §2\nThe reaction is started by the addition of homogenate, run for 4 min at 37° C., and terminated by boiling for 90 sec. […] The void volume is discarded and the column is then eluted with 2 ml of 0.1N ammonium acetate, pH 4.0, the eluent collected and counted by liquid scintillation spectrometry. […]"}, "[5]": {"assay": "Level of PDE inhibitor compound in insects in vivo", "set-up": "species or system tobacco hornworms", "details": "feeding 72 hours on tomato leaves treated with a 1% spray of theophylline; read-out: internal concentration within the insects", "method": "To determine this, tobacco hornworms were allowed to feed on tomato leaves treated with a 1% spray of theophylline. This concentration was chosen since it is an amount which, by itself, inhibits feeding in the tobacco hornworm (see FIG. 13). After 72 hours, worms (alive or dead) were removed, quickly rinsed of any compound adhering to their outside cuticle, and then homogenized. The homogenate was centrifuged at 2000×g for 5 minutes and the supernatant was assayed for theophylline concentration by a standard immunoenzymatic procedure (Emit-aad® Theophylline Assay, Syva Company, Palo Alto, Calif.). By this procedure, the internal concentration within the insects was determined to be 4.0 mM. From FIGS. 6,7 or 8 it will be seen that this concentration of theophylline is sufficient to cause at least 70% inhibition of PDE enzyme activity in vitro. The correspondence between in vitro and in vivo results is remarkably close and serves to further support the invention."}}, "data": [{"compound": "CCCCNc1ncnc2c1nc(SCc1ccccc1)n2[C@@H]1O[C@@H]2COP(=O)(O)O[C@H]2[C@H]1O", "note": "[n-butylaminobenzylthio cyclic AMP, 6-n-butylamino-8-benzylthio-cyclic AMP]", "values": [{"measurement": "amount of butyl-benzylthio cyclic AMP present after 4 hours, effect of addition of IBMX", "setting": "[1]", "value": "more than doubled"}, {"measurement": "antifeeding activity in the absence of IBMX", "setting": "[2]; concentration of 1%, FIGS. 18, 19", "value": "some antifeeding activity"}]}, {"compound": "Cn1c(=O)c2[nH]cnc2n(C)c1=O", "note": "[theophylline]", "values": [{"measurement": "phosphodiesterase inhibition", "setting": "[3]; FIG. 6", "value": "active as phosphodiesterase inhibitors"}, {"measurement": "inhibition of PDE enzyme activity in vitro", "setting": "[3]; theophylline 4.0 mM, read from FIGS. 6,7 or 8 (firefly or hornworm)", "value": "at least 70%"}, {"measurement": "pattern of PDE inhibition", "setting": "[4]", "value": "quite similar to that in the firefly light organ"}, {"measurement": "concentration", "setting": "[5]", "value": 4000, "unit": "µM"}, {"measurement": "% Leaf Remaining (increase over control)", "setting": "[2]; 1% Theophylline alone", "value": 11, "unit": "%"}]}]}
